In US10308644B2, “Heterocyclic compounds as immunomodulators” (Incyte Corporation, priority 2016, dated 2019):
pIC50: −log10 of the molar value.

Biological target: PD-1/PD-L1 (Homo sapiens (Human), UniProt Q9NZQ7)
Test: PD-1/PD-L1 Homogeneous Time-Resolved Fluorescence (HTRF) Binding Assay
Details: recombinant human PD-1 (3 nM) and PD-L1 (10 nM), 25° C., PBS pH 7.4
Procedure, shortened: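 Fc-tagged human PD-1 (25-167, 3 nM) and His-tagged PD-L1 (19-238, 10 nM) preincubated with inhibitor 40 min in PBS pH 7.4, 0.05% Tween-20, 0.1% BSA, 1% DMSO, 25 °C. Binding detected by HTRF (Eu anti-IgG/APC anti-His, 665/620 nm) after 60 min; IC50 from percent control activity.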

Chain of PD-1/PD-L1 (Q9NZQ7 19-238): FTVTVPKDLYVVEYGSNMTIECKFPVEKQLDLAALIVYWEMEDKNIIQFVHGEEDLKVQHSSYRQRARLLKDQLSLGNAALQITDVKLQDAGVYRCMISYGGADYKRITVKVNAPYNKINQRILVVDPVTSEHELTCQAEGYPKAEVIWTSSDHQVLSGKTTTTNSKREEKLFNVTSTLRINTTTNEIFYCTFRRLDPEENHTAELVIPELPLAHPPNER

pIC50	Compound
≥ 8.00	Cc1c(-c2nc3cc(CN4CC[C@@H](C(=O)O)C4)cc(C#N)c3o2)cccc1-c1cccc(Nc2nccc3cc(CN4CC[C@@H](O)C4)cnc23)c1Cl [Example 84, (R)-1-((2-(2′-chloro-3′-(3-(((R)-3-hydroxypyrrolidin-1-yl)methyl)-1,7-naphthyridin-8-ylamino)-2-methylbiphenyl-3-yl)-7-cyanobenzo[d]oxazol-5-yl)methyl)pyrrolidine-3-carboxylic acid]
≥ 8.00	Cc1c(-c2nc3cc(CN4CC[C@@](C)(C(=O)O)C4)cc(C#N)c3o2)cccc1-c1cccc(-c2nc3c(s2)CN(C(=O)CN(C)[C@H](C)CO)C3)c1C [Example 225, (R)-1-((7-cyano-2-(3′-(5-(2-(((R)-1-hydroxypropan-2-yl)(methyl)amino)acetyl)-5,6-dihydro-4H-pyrrolo[3,4-d]thiazol-2-yl)-2,2′-dimethylbiphenyl-3-yl)benzo[d]oxazol-5-yl)methyl)-3-methylpyrrolidine-3-carboxylic acid]
≥ 8.00	Cc1c(Nc2nccc3cc(CNCCO)cnc23)cccc1-c1cccc(-c2nc3cc(CN4CC[C@@](C)(C(=O)O)C4)cc(C#N)c3o2)c1C [Example 189, (R)-1-((7-cyano-2-(3′-(3-((2-hydroxyethylamino)methyl)-1,7-naphthyridin-8-ylamino)-2,2′-dimethylbiphenyl-3-yl)benzo[d]oxazol-5-yl)methyl)-3-methylpyrrolidine-3-carboxylic acid]
≥ 8.00	Cc1c(NC(=O)c2nc3c(n2C)CCN(C(C)C)C3)cccc1-c1cccc(-c2nc3cc(CN4CC[C@H](C(=O)O)C4)cc(C#N)c3o2)c1C [Example 38, (S)-1-((7-cyano-2-(3′-(5-isopropyl-1-methyl-4,5,6,7-tetrahydro-1H-imidazo[4,5-c]pyridine-2-carboxamido)-2,2′-dimethylbiphenyl-3-yl)benzo[d]oxazol-5-yl)methyl)pyrrolidine-3-carboxylic acid]
≥ 8.00	Cc1c(Nc2nccc3cc(CN4CCCC4)cnc23)cccc1-c1cccc(-c2nc3cc(CN4CC[C@@H](C(=O)O)C4)cc(C#N)c3o2)c1C [Example 134, (R)-1-((7-cyano-2-(2,2′-dimethyl-3′-(3-(pyrrolidin-1-ylmethyl)-1,7-naphthyridin-8-ylamino)biphenyl-3-yl)benzo[d]oxazol-5-yl)methyl)pyrrolidine-3-carboxylic acid]
≥ 8.00	Cc1c(-c2nc3cc(CN4CC[C@@H](C(=O)NCCO)C4)cc(C#N)c3o2)cccc1-c1cccc(-c2nc3c(s2)CN(C(C)C)CC3)c1C [Example 119, (R)-1-((7-cyano-2-(3′-(5-isopropyl-4,5,6,7-tetrahydrothiazolo[5,4-c]pyridin-2-yl)-2,2′-dimethyl-[1,1′-biphenyl]-3-yl)benzo[d]oxazol-5-yl)methyl)-N-(2-hydroxyethyl)pyrrolidine-3-carboxamide]
≥ 8.00	Cc1c(COc2cc(OCc3cncc(C#N)c3)c(CN3CC[C@@H](O)C3)cc2Cl)cccc1-c1cccc(-c2nc3cc(CN4CC[C@@H](C(=O)O)C4)cc(Cl)c3o2)c1C [Example 148, (R)-1-((7-chloro-2-(3′-((2-chloro-5-((5-cyanopyridin-3-yl)methoxy)-4-(((R)-3-hydroxypyrrolidin-1-yl)methyl)phenoxy)methyl)-2,2′-dimethyl-[1,1′-biphenyl]-3-yl)benzo[d]oxazol-5-yl)methyl)pyrrolidine-3-carboxylic acid]
≥ 8.00	Cc1c(Nc2nccc3cc(CN4CC[C@@H](C(=O)O)C4)cnc23)cccc1-c1cccc(-c2nc3cc(CN[C@@H](C)CO)cc(C#N)c3o2)c1C [Example 211, (R)-1-((8-(3′-(7-cyano-5-(((S)-1-hydroxypropan-2-ylamino)methyl)benzo[d]oxazol-2-yl)-2,2′-dimethylbiphenyl-3-ylamino)-1,7-naphthyridin-3-yl)methyl)pyrrolidine-3-carboxylic acid]
≥ 8.00	Cc1c(Nc2nccc(CN3CC[C@@H](O)C3)c2F)cccc1-c1cccc(-c2nc3cc(CN4CC[C@@H](C(=O)O)C4)cc(C#N)c3o2)c1C [Example 102, (R)-1-((7-cyano-2-(3′-(3-fluoro-4-(((R)-3-hydroxypyrrolidin-1-yl)methyl)pyridin-2-ylamino)-2,2′-dimethylbiphenyl-3-yl)benzo[d]oxazol-5-yl)methyl)pyrrolidine-3-carboxylic acid]
≥ 8.00	CNC1CCN(c2cccc(-c3cccc(-c4nc5cc(CN6CC[C@@H](C(=O)O)C6)cc(Cl)c5o4)c3C)c2Cl)CC1 [Example 43, (R)-1-((7-chloro-2-(2′-chloro-2-methyl-3′-(4-(methylamino)piperidin-1-yl)biphenyl-3-yl)benzo[d]oxazol-5-yl)methyl)pyrrolidine-3-carboxylic acid]
≥ 8.00	Cc1c(-c2nc3cc(CN4CC[C@@](C)(C(=O)O)C4)cc(C#N)c3o2)cccc1-c1cccc(-c2nc3c(s2)CN(C(=O)CN[C@H]2C[C@@H](O)C2)C3)c1C [Example 228, (R)-1-((7-cyano-2-(3′-(5-(2-(cis-3-hydroxycyclobutylamino)acetyl)-5,6-dihydro-4H-pyrrolo[3,4-d]thiazol-2-yl)-2,2′-dimethylbiphenyl-3-yl)benzo[d]oxazol-5-yl)methyl)-3-methylpyrrolidine-3-carboxylic acid]
≥ 8.00	Cc1c(-c2nc3cc(CN4CC5(CC(C(=O)O)C5)C4)cc(C#N)c3o2)cccc1-c1cccc(-c2nc3c(s2)CN(C(=O)CN2CC[C@@H](O)C2)C3)c1C [Example 234, 2-((7-cyano-2-(3′-(5-(2-((R)-3-hydroxypyrrolidin-1-yl)acetyl)-5,6-dihydro-4H-pyrrolo[3,4-d]thiazol-2-yl)-2,2′-dimethylbiphenyl-3-yl)benzo[d]oxazol-5-yl)methyl)-2-azaspiro[3.3]heptane-6-carboxylic acid]
≥ 8.00	Cc1c(-c2nc3cc(CN4CC[C@@](C)(C(=O)O)C4)cc(C#N)c3o2)cccc1-c1cccc(-c2nc3c(s2)CN(C(=O)CN(C)C)C3)c1C [Example 109, (R)-1-((7-cyano-2-(3′-(5-(2-(dimethylamino)acetyl)-5,6-dihydro-4H-pyrrolo[3,4-d]thiazol-2-yl)-2,2′-dimethylbiphenyl-3-yl)benzo[d]oxazol-5-yl)methyl)-3-methylpyrrolidine-3-carboxylic acid]
≥ 8.00	Cc1c(-c2nc3cc(CN[C@@H](C)C(=O)O)cc(C#N)c3o2)cccc1-c1cccc(NC(=O)c2nc3c(n2C)CCN(C)C3)c1Cl [Example 90, (S)-2-((2-(2′-chloro-3′-(1,5-dimethyl-4,5,6,7-tetrahydro-1H-imidazo[4,5-c]pyridine-2-carboxamido)-2-methylbiphenyl-3-yl)-7-cyanobenzo[d]oxazol-5-yl)methylamino)propanoic acid]

Compound	pIC50
Cc1c(-c2nc3cc(CN4CC[C@@H](C(=O)O)C4)cc(C#N)c3o2)cccc1-c1cccc(-c2nc3c(s2)C(C)(C)N(C)CC3)c1C [Example 79, (R)-1-((7-cyano-2-(2,2′-dimethyl-3′-(4,4,5-trimethyl-4,5,6,7-tetrahydrothiazolo[5,4-c]pyridin-2-yl)-[1,1′-biphenyl]-3-yl)benzo[d]oxazol-5-yl)methyl)pyrrolidine-3-carboxylic acid]	≥ 8.00
